Where “and” joins values, the source holds several entries; their conditions need not be identical. Equal entries are not always repeated. Where two headings read alike, the source gives them in different places.
Assays:
[1] = tested on: MCF-7 cells; assay: cell cytotoxic effects against MCF-7 cells (72 h), A490; type: cell-based, human; conditions: for viability at 0.1 µM / viability at 1 µM / viability at 10 µM: Homo sapiens, MCF7, 72 h, read-out: A490 (control =1) ave; for viability at 0.1 µM / viability at 1 µM / viability at 10 µM / A490 ave: MCF-7, 72 h
[2] = cytotoxicity in Drosophila DL1 cells; type: cell-based; conditions: Drosophila, DL1 cells (embryonic macrophage-derived), DL1 cells
Description: (§1) We screened the DDPs on the Drosophila assay system for cytotoxicity, inhibitory activity of innate immune signalling and insecticidal activity. The cytotoxicity of the DDPs was evaluated using two cell lines, embryonic macrophage-derived DL1 cells[58]–[60] and larval blood cell-derived l(2)mbn cells, and their IC50 values are listed in Supplementary Table 23.

[3] = tested on: DL1 cells; assay: cytotoxicity in Drosophila DL1 cells; type: cell-based; conditions: DL1 cells; for IC50: Drosophila melanogaster, cytotoxicity
Description: as §1

[4] = tested on: human immunodeficiency virus-1 (HIV-1); assay: anti-HIV MAGI assay; type: cell-based; conditions: Human immunodeficiency virus 1, MAGI, anti-HIV
From the text: We examined the inhibitory activities of DDPs against various species of bacteria (both gram-negative and gram-positive bacteria), fungi and viruses. […] In contrast, preliminary screening of the DDPs for anti-viral agents with hepatitis B virus (HBV), measles virus (MV), Epstein-Barr virus (EBV), herpes simplex virus (HSV) and human immunodeficiency virus-1 (HIV-1) indicated their selective inhibition of HIV.

[5] = tested on: MAGI cells; assay: cytotoxicity in the anti-HIV assay (CC50); type: cell-based; conditions: for Cytotoxicity Avg.: average of numeric determinations; for Cytotoxicity: single determinations
[6] = tested on: MKN1; assay: cells; set-up: species or system JFCR39 human cancer cell lines; JFCR39 panel growth inhibition, sulforhodamine B total protein after 48 h; conditions: Homo sapiens, MKN-1, 48 h
Description: (§2) Supplementary Note 24. Antiproliferative effects across the panel of JFCR39 cancer cell lines A panel of 39 human cancer cell lines, termed JFCR39, were previously described13-16. Cells were grown in RPMI-1640 (FUJIFILM Wako Pure Chemical Corporation, Tokyo, Japan) supplemented with 1 µg mL-1 kanamycin and 5% (v/v) fetal bovine serum (Nichirei Biosciences Inc, Tokyo, Japan) and incubated at 37°C in a humidified atmosphere supplemented with 5% CO2. Drug efficacy was assessed as changes in total cellular protein after 48 hours of drug treatment using a sulforhodamine B assay. Assays were done in duplicate and the GI50 was calculated as described previously13,16. The antitumor profile across the JFCR39 panel, or fingerprints were then compared to reference database containing ~2000 compounds by COMPARE algorithm16,17. Initially, we evaluated new DDP analogues for their antiproliferative activities across the panel of 39 human cancer cell lines, JFCR39[50],[51].

[7] = tested on: HBC-5; assay: cells; set-up: species or system JFCR39 human cancer cell lines; JFCR39 panel growth inhibition, sulforhodamine B total protein after 48 h; conditions: HBC5, 48 h
Description: as §2

[8] = tested on: LOX-IMVI; assay: cells; set-up: species or system JFCR39 human cancer cell lines; JFCR39 panel growth inhibition, sulforhodamine B total protein after 48 h; conditions: Homo sapiens, LOX IMVI, 48 h
Description: as §2

[9] = tested on: OVCAR-8; assay: cells; set-up: species or system JFCR39 human cancer cell lines; JFCR39 panel growth inhibition, sulforhodamine B total protein after 48 h; conditions: Homo sapiens, OVCAR-8, 48 h
Description: as §2

[10] = tested on: OVCAR-3; assay: cells; set-up: species or system JFCR39 human cancer cell lines; JFCR39 panel growth inhibition, sulforhodamine B total protein after 48 h; conditions: Homo sapiens, OVCAR-3, 48 h
Description: as §2

[11] = tested on: MKN-B; assay: cells; set-up: species or system JFCR39 human cancer cell lines; JFCR39 panel growth inhibition, sulforhodamine B total protein after 48 h; conditions: 48 h
Description: as §2

[12] = 0.1 µM (DMSO 0.002%), control 1.064
[13] = 1 µM (DMSO 0.02%), control 1.104
[14] = 10 µM (DMSO 0.2%), control 1.049
[15] = replicate 1, relative to DMSO 1%, read-out: % viability, viability 1
[16] = replicate 2, relative to DMSO 1%, read-out: % viability, viability 2
[17] = average of two replicates, read-out: IC50 Average
[18] = replicate 1, read-out: IC50 (1)
[19] = replicate 2, read-out: IC50 (2)
[20] = average of numeric determinations, read-out: Avg. EC50

| Structure (SMILES) | cytotoxicity against the bulk of MCF-7 cells [1] | viability at 0.1 µM ([1]; 0.1 µM (DMSO 0.002%)) [%] | viability at 1 µM ([1]; 1 µM (DMSO 0.02%)) [%] | viability at 10 µM ([1]; 10 µM (DMSO 0.2%)) [%] | A490 ave [1, 12] | A490 ave [1, 13] | A490 ave [1, 14] | viability at 0.04 µM [2, 15] [%] | viability at 0.04 µM [2, 16] [%] | viability at 0.2 µM [2, 15] [%] | viability at 0.2 µM [2, 16] [%] | viability at 1 µM [2, 15] [%] | viability at 1 µM [2, 16] [%] | viability at 4 µM [2, 15] [%] | viability at 4 µM [2, 16] [%] | viability at 10 µM [2, 15] [%] | viability at 10 µM [2, 16] [%] | viability at 20 µM [2, 15] [%] | viability at 20 µM [2, 16] [%] | Cytotoxicity [5] | further results |
| --- | --- | --- | --- | --- | --- | --- | --- | --- | --- | --- | --- | --- | --- | --- | --- | --- | --- | --- | --- | --- | --- |
| C=C1CCC2C3(C)CC(C=C(C)C)OC3CCC2(C)C1Cc1c(OC)oc(C)c(C)c1=O (stereo not drawn) [Compound 23] | dose-dependent cytotoxicity | 62.5 | 21.6 | 14.8 | 0.664 | 0.239 | 0.155 | 80.6 | 110 | 21.3 | 27.7 | 7.72 | 9.91 | 8.03 | 7.75 | 4.94 | 5.43 | 8.44 | 8.21 | 5.032 µM and 7.537 µM and 4.281 µM | Luminescence Raw1 ([3]; 0.04 µM, replicate 1): 1660895; Luminescence Raw2 ([3]; 0.04 µM, replicate 2): 2275454; Luminescence Raw1 ([3]; 0.2 µM, replicate 1): 438070; Luminescence Raw2 ([3]; 0.2 µM, replicate 2): 571485; Luminescence Raw1 ([3]; 1 µM, replicate 1): 158989; Luminescence Raw2 ([3]; 1 µM, replicate 2): 204060; Luminescence Raw1 ([3]; 4 µM, replicate 1): 165479; Luminescence Raw2 ([3]; 4 µM, replicate 2): 159710; Luminescence Raw1 ([3]; 10 µM, replicate 1): 101660; Luminescence Raw2 ([3]; 10 µM, replicate 2): 111756; Luminescence Raw1 ([3]; 20 µM, replicate 1): 173772; Luminescence Raw2 ([3]; 20 µM, replicate 2): 169085; IC50 [3, 17]: 130 nM; IC50 ([3]; average±SEM, read-out: IC50): 130 ± 40 nM; IC50 [3, 18]: 94 nM; IC50 [3, 19]: 167 nM; EC50 ([4]; MAGI assay, read-out: EC50): < 200 nM; Cytotoxicity Avg. [5]: 5.617 µM |
| C=C1CC[C@@H]2[C@](C)(CC[C@H]3O[C@H](C=C(C)C)C[C@@]23C)[C@@H]1Cc1c(O)c(C)c(C)oc1=O [Compound 10, higginsianin A] | – | 62.9 | 94.3 | 17.9 | 0.669 | 1.042 | 0.188 | 82.7 | 85.6 | 36.2 | 35 | 7.23 | 6.51 | 4.76 | 6.46 | 7.6 | 6.95 | 5.78 | 5.81 | >10 µM | Luminescence Raw1 ([3]; 0.04 µM, replicate 1): 1703467; Luminescence Raw2 ([3]; 0.04 µM, replicate 2): 1762974; Luminescence Raw1 ([3]; 0.2 µM, replicate 1): 745666; Luminescence Raw2 ([3]; 0.2 µM, replicate 2): 721146; Luminescence Raw1 ([3]; 1 µM, replicate 1): 148910; Luminescence Raw2 ([3]; 1 µM, replicate 2): 134127; Luminescence Raw1 ([3]; 4 µM, replicate 1): 98071; Luminescence Raw2 ([3]; 4 µM, replicate 2): 133046; Luminescence Raw1 ([3]; 10 µM, replicate 1): 156482; Luminescence Raw2 ([3]; 10 µM, replicate 2): 143141; Luminescence Raw1 ([3]; 20 µM, replicate 1): 118984; Luminescence Raw2 ([3]; 20 µM, replicate 2): 119705; IC50 [3, 17]: 133 nM; IC50 ([3]; average±SEM, read-out: IC50): 130 ± 10 nM; IC50 [3, 18]: 132 nM; IC50 [3, 19]: 133 nM; EC50 ([4]; MAGI assay, read-out: EC50): < 200 nM; EC50 [4, 20]: 53.2 nM |
| C=C1CC[C@H]2[C@]3(C)C[C@H](C=C(C)C)O[C@H]3CC[C@]2(C)[C@@H]1Cc1c(OC)oc(CO)c(C)c1=O [Compound 18] | dose-dependent cytotoxicity | 65.7 | 26.3 | 15 | 0.699 | 0.290 | 0.158 | 95.6 | 92.1 | 56.9 | 64.1 | 7.49 | 7.12 | 4.95 | 5.08 | 5.18 | 6.3 | 3.9 | 5.16 | >10 µM | Luminescence Raw1 ([3]; 0.04 µM, replicate 1): 1968545; Luminescence Raw2 ([3]; 0.04 µM, replicate 2): 1896774; Luminescence Raw1 ([3]; 0.2 µM, replicate 1): 1171179; Luminescence Raw2 ([3]; 0.2 µM, replicate 2): 1320836; Luminescence Raw1 ([3]; 1 µM, replicate 1): 154319; Luminescence Raw2 ([3]; 1 µM, replicate 2): 146747; Luminescence Raw1 ([3]; 4 µM, replicate 1): 102038; Luminescence Raw2 ([3]; 4 µM, replicate 2): 104562; Luminescence Raw1 ([3]; 10 µM, replicate 1): 106725; Luminescence Raw2 ([3]; 10 µM, replicate 2): 129801; Luminescence Raw1 ([3]; 20 µM, replicate 1): 80404; Luminescence Raw2 ([3]; 20 µM, replicate 2): 106364; IC50 [3, 17]: 254 nM; IC50 ([3]; average±SEM, read-out: IC50): 250 ± 20 nM; IC50 [3, 18]: 236 nM; IC50 [3, 19]: 272 nM; EC50 ([4]; MAGI assay, read-out: EC50): < 200 nM; EC50 [4, 20]: 644 nM |
| C=C1CC[C@@H]2[C@](C)(CC[C@H]3O[C@H](C=C(C)C)C[C@@]23C)[C@@H]1Cc1c(OC)oc(C)c(C)c1=O [Compound 22, O-methylated higginsianin A] | dose-dependent cytotoxicity | 81.4 | 48 | 30.1 | 0.866 | 0.530 | 0.316 | – | – | – | – | – | – | – | – | – | – | – | – | 5.68 µM and 5.915 µM and 3.643 µM | EC50 [4, 20]: 143 nM; GI50 [6]: 10200 nM; GI50 [7]: 7060 nM; GI50 [8]: 1170 nM; GI50 [9]: 4780 nM; GI50 [10]: 2340 nM; GI50 [11]: 540 nM; Cytotoxicity Avg. [5]: 5.079 µM |

Source: article PMC7156458, “Synthetic biology based construction of biological activity-related library of fungal decalin-containing diterpenoid pyrones” (Nature Communications, 2020)
